One assay concerns the target cyclophilin A (Homo sapiens (Human), UniProt P62937). In words: Functional peptidyl prolyl isomerase (PPIase) spectrophotometric assay, cyclophilin A. The class given is biochemical. The conditions noted are these: first value of CypA/D cell. From the text: (§1) Cyclophilins are enzymes that catalyse the cis-trans isomerisation of peptide bonds to the amino acid proline. This event is important in many biological processes, including protein folding and signal transduction. […] The method to measure this activity and its inhibition is similar to that described by Jankowski (Analytical Biochemistry, 252, 2, 299-307 (1997)). The assay measures the cis to trans isomerisation of a peptide substrate catalysed by a PPlase enzyme using a UV/Vis spectrophotometer. This assay is a manual single cuvette-based assay. A first order rate equation is fitted to the absorbance data to obtain a rate constant. The catalytic rate is calculated from the enzymatic rate minus the background rate. The Ki (the concentration required to produce half maximum inhibition) for an inhibitor is obtained from the rate constant plotted against the inhibitor concentration. Typically, a 6-point dose response curve is obtained from duplicates and a Ki determined. Data are given in Table 5 as Ki [nM] for cyclophilins A and D, expressed in column 2 of Table 5 as Ki (cypA)/Ki (cypD).

The target of another assay is cyclophilin D (Homo sapiens (Human), UniProt P30405). In words: Functional peptidyl prolyl isomerase (PPIase) spectrophotometric assay, cyclophilin D. The assay is classed as biochemical. The settings on record: second value of CypA/D cell; read-out: Ki CypD.
cyclophilin D, sequence (P30405 30-207, species assumed): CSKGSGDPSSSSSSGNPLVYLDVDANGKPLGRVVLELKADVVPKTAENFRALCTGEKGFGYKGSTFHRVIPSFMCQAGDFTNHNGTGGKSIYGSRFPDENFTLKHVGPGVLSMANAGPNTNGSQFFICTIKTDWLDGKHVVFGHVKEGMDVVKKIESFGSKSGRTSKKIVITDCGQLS
Text: as §1

Assay [1] has as its system permeabilised HepG2 cells. In words: Calcium retention capacity (CRC) assay in permeabilised HepG2 cells (MPTP opening). The assay is classed as cell-based, human. Details: CRC [10 μM]: unit not given here. The conditions noted are these: compound at 10 μM; for CRC [10 μM]: digitonin permeabilised HepG2 cells; for CRC [10 μM] (ratio vs CsA): normalised to cyclosporin A, value in brackets. As for the experimental part: The use of permeabilised cells means that inhibitory compounds that may not normally enter non-permeabilised cells are more likely to be active.
The calcium retention capacity (CRC) is a measure of the capability of mitochondria to retain calcium, primarily in the form of calcium phosphates, in the mitochondrial matrix.
In a CRC assay, the calcium indicator Calcium Green-5N (InVitrogen) is utilized. […] The assay is carried out in HepG2 (human hepatocellular carcinoma) cells which are digitonin permeabilized. Trains of calcium pulses (typically 5 μM additions) are added which results in a sudden increase in fluorescence which is then reduced by mitochondrial buffering. The cells will reach a point at which the calcium addition is no longer buffered, an indication that the MPTP has opened (mitochondrial permeability transition).
The experiment is performed with and without inhibitor. A compound that acts to inhibit the mitochondrial pore opening will result in a greater requirement for calcium to reach the transition point. The results are normalised to a positive control (cyclosporin A) in each experiment. The results are shown in column 3 of Table 5 as CRC [10 μM] (ratio vs CsA). The method of digitonin permeabilised whole cell CRC assay is similar to that used by Chiara et al. (PLoS One, March, 3, 3, e1852 (2008)).

A further assay concerns SH-SY5Y cells. In words: Thapsigargin treated cell death assay in SH-SY5Y cells. The assay is classed as cell-based, human. The settings on record: compound at 10 μM, positive = protection from cell death, negative = compound toxicity. The source says: Thapsigargin raises intracellular free calcium (Ca^2+) by potently inhibiting the endoplasmic reticulum Ca-ATPase, which sequesters Ca^2+ from the cytosol. The increased cytosolic Ca^2+ concentration is buffered by mitochondria by exchanging Ca^2+ for K, leading to depolarisation in the inner mitochondrial membrane and permeability transition.
The thapsigargin treated Jurkat cell death assay is a homogeneous 96 well plate based assay for cell death, instigated by the opening of the mitochondrial permeability transition pore (MPTP). The addition of thapsigargin to Jurkat cells results in an influx of calcium, the increase in intracellular calcium will initially be buffered by the mitochondria, but eventually the increasing calcium concentration will result in the opening of the MPTP, resulting in cell death.
CellTox™ Green is a dye which is unable to enter the cell until cell death leads to the loss of membrane integrity. Once this happens the CellTox™ Green enters the cell, binds to the cell's DNA and emits a fluorescent signal. […] Unless otherwise stated, the assay is typically run using a range of three compound concentrations of 1, 3 and 10 μM in triplicate and is read kinetically over a period of 24 hours. Compounds are added 30 minutes before the addition of thapsigargin. Compound only controls and positive control, cyclosporin A (CsA) (3 and 10 μM) are also included in the assay. Results are typically calculated at the 8 hour time point and the kinetic data is also reported.
The assay is carried out as described for the Jurkat cells but using the SH-SY5Y (human neuroblastoma) cell line instead of Jurkat cells. The results are shown in the fourth column of Table 5 (SY5Y [10 μM]% recovery). Positive numbers indicate protection from cell death, negative numbers indicate compound toxicity.

cyclophilin A, sequence (P62937 whole entry, species assumed): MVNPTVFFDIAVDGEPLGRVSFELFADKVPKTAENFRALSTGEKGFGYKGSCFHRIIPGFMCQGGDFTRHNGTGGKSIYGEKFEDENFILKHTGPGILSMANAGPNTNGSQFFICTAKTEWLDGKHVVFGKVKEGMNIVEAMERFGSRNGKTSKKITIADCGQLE

For orientation: Ki means the dissociation constant of the complex between target and ligand, obtained from inhibition or displacement. Regarding `CNC(=O)c1ccc(CC2OC(=O)C(C)(C)/C=C/c3ccc4ccc(nc4c3)N(C)NC(=O)[C@@H]3CCCN(N3)C(=O)[C@H](C)NC2=O)cc1` (single isomer, unassigned) [Compound (39)], the affinity on cyclophilin A, expressed as Ki, was 30 nM. In addition, at cyclophilin D, the Ki was determined as 36 nM. In assay [1] (listed as 39), the “CRC [10 μM]” value came to 15 and the “CRC [10 μM] (ratio vs CsA)” value was 0.67. The “SYSY [10 μM] % recovery” value with SH-SY5Y cells (listed as 39) was 0%.
As to `C[C@@H]1NC(=O)[C@H](CC2CCCNC2)NC(=O)C(C)(C)/C=C/c2ccc3ccc(nc3c2)N(C)NC(=O)[C@@H]2CCCN(N2)C1=O` (stereo partly shown) [Compound (35)], the Ki at cyclophilin A and on cyclophilin D was 1100 nM in each case. For the same molecule, the “CRC [10 μM]” value in assay [1] is reported as 10. Further, the “CRC [10 μM] (ratio vs CsA)” value in assay [1] is given as 0.41. For the same molecule, the “SYSY [10 μM] % recovery” value with SH-SY5Y cells was 37%.
The molecule `COC[C@]1(C)/C=C/c2ccc3ccc(nc3c2)N(C)NC(=O)[C@@H]2CCCN(N2)C(=O)[C@H](C)NC(=O)[C@H](C(C)C)OC1=O` [Compound (14)] gave a Ki on cyclophilin A of 17 nM. Further, the Ki on cyclophilin D stood at 25 nM. Also, in assay [1], the “CRC [10 μM]” value was 40 and the “CRC [10 μM] (ratio vs CsA)” value came out at 1.09. In addition, the “SYSY [10 μM] % recovery” value in the assay on SH-SY5Y cells stood at 9.3%.
In the same order, the values of `CC(C)[C@@H]1OC(=O)[C@](C)(Cc2ccccc2)/C=C/c2ccc3ccc(nc3c2)N(C)NC(=O)[C@@H]2CCCN(N2)C(=O)[C@H](C)NC1=O` [Compound (16)] are 1.7 nM, 14 nM, 25, 0.83 and 62%.
`CC(C)[C@@H]1OC(=O)[C@@](C)(Cc2ccccc2)/C=C/c2ccc3ccc(nc3c2)N(C)NC(=O)[C@@H]2CCCN(N2)C(=O)[C@H](C)NC1=O` [Compound (17)]: the Ki amounted to 1.7 nM at cyclophilin A and 9 nM at cyclophilin D. Further, the “CRC [10 μM]” value in assay [1] worked out at 33.3. Also, the “CRC [10 μM] (ratio vs CsA)” value in assay [1] is 0.95. Moreover, the “SYSY [10 μM] % recovery” value in the assay with SH-SY5Y cells turned out to be 87.8%.
Turning to `C[C@@H]1NC(=O)[C@@H](CC2CCCNC2)OC(=O)C(C)(C)/C=C/c2ccc3ccc(nc3c2)N(C)NC(=O)[C@@H]2CCCN(N2)C1=O` (single isomer, unassigned) [Compound (31)], the inhibition constant Ki was 790 nM on cyclophilin A and 180 nM on cyclophilin D. In addition, the “CRC [10 μM]” value in assay [1] was found to be 10. Further, the “CRC [10 μM] (ratio vs CsA)” value in assay [1] is reported as 0.33. Also, the “SYSY [10 μM] % recovery” value with SH-SY5Y cells (listed as 31) was found to be 12%.
In the case of `CC(C)[C@@H]1OC(=O)C(C)(C)/C=C/c2ccc3ccc(nc3c2)N(C)NC(=O)[C@@H]2CCCN(N2)C(=O)[C@H](CCC(=O)N2CCC(O)CC2)NC1=O` [Compound (72)], on cyclophilin A, affinity was put at a Ki of 14 nM. For the same molecule, the inhibition constant Ki at cyclophilin D was 21 nM. In addition, in assay [1], the “CRC [10 μM]” value worked out at 20 and the “CRC [10 μM] (ratio vs CsA)” value came out at 0.80. Further, the “SYSY [10 μM] % recovery” value in the assay on SH-SY5Y cells is 43%.
The matching figures for `CC(C)[C@@H]1OC(=O)C(C)(C)/C=C/c2ccc3ccc(nc3c2)N(C)NC(=O)[C@@H]2CCCN(N2)C(=O)[C@H](CCC(=O)N(C)c2ccccc2)NC1=O` [Compound (64)]: 5.1 nM, 59 nM, 25, 1.00 and 44%.
`CC(C)[C@H]1OC(=O)C/C=C/c2ccc3ccc(nc3c2)N(C)NC(=O)[C@@H]2CCCN(N2)C(=O)[C@H](C)NC1=O` (stereo in doubt) [Compound (1)] had a Ki at cyclophilin A of 25 nM. At cyclophilin D, the inhibition constant Ki is 54 nM. Moreover, in assay [1], the “CRC [10 μM]” value came out at 35 and the “CRC [10 μM] (ratio vs CsA)” value came out at 0.95. For the same molecule, the “SYSY [10 μM] % recovery” value in the assay on SH-SY5Y cells is 8.4%.
`C[C@@H]1NC(=O)[C@H](CN2CCNCC2)OC(=O)C(C)(C)/C=C/c2ccc3ccc(nc3c2)N(C)NC(=O)[C@@H]2CCCN(N2)C1=O` [Compound (48)]: the Ki on cyclophilin A stood at 26 nM; at cyclophilin D, 11 nM. For the same molecule, the “CRC [10 μM]” value in assay [1] was 10. Besides, the “CRC [10 μM] (ratio vs CsA)” value in assay [1] turned out to be 0.5. In addition, the “SYSY [10 μM] % recovery” value in the assay on SH-SY5Y cells is reported as 46%.
Take `CC(C)[C@@H]1OC(=O)C(C)(C)/C=C/c2ccc3ccc(nc3c2)N(C)NC(=O)[C@@H]2CCCN(N2)C(=O)[C@H](CCCCNCc2ccc3ccccc3c2)NC1=O` [Compound (61)]: the inhibition constant (Ki) on cyclophilin A is 1.85 nM; on cyclophilin D, 4.25 nM. Moreover, the “CRC [10 μM]” value in assay [1] was determined as 20. The “CRC [10 μM] (ratio vs CsA)” value in assay [1] turned out to be 0.78. For the same molecule, the “SYSY [10 μM] % recovery” value in the assay on SH-SY5Y cells was 35%.
As for `COc1ccc(C[C@@H]2OC(=O)C(C)(C)/C=C/c3ccc4ccc(nc4c3)N(C)NC(=O)[C@@H]3CCCN(N3)C(=O)[C@H](C)NC2=O)cc1` [Compound (60)], the Ki at cyclophilin A was determined as 1.3 nM. In addition, the Ki at cyclophilin D worked out at 9.5 nM. Also, in assay [1], the “CRC [10 μM]” value came out at 25 and the “CRC [10 μM] (ratio vs CsA)” value was 0.80. Besides, in the assay on SH-SY5Y cells, the “SYSY [10 μM] % recovery” value is 37%.
The matching figures for `C[C@@H]1NC(=O)C(Cc2ccc(N)nc2)OC(=O)C(C)(C)/C=C/c2ccc3ccc(nc3c2)N(C)NC(=O)[C@@H]2CCCN(N2)C1=O` (stereo partly shown) [Compound (43)]: 44 nM, 40 nM, 10, 0.67 and 10%.
On to `C[C@@H]1NC(=O)[C@H](CCC(N)=O)OC(=O)C(C)(C)/C=C/c2ccc3ccc(nc3c2)N(C)NC(=O)[C@@H]2CCCN(N2)C1=O` [Compound (54)], for which the Ki on cyclophilin A was determined as 36 nM; on cyclophilin D, 700 nM. Besides, the “CRC [10 μM]” value in assay [1] came to 15. The “CRC [10 μM] (ratio vs CsA)” value in assay [1] stood at 0.50. In the assay with SH-SY5Y cells, the “SYSY [10 μM] % recovery” value was 10%.
As for `CC(C)[C@@H]1OC(=O)C(C)(C)/C=C/c2ccc3ccc(nc3c2)N(C)NC(=O)[C@@H]2CCCN(N2)C(=O)[C@H](CCC(=O)N2CCNCC2)NC1=O` [Compound (69)], the affinity on cyclophilin A corresponds to a Ki of 34 nM. Besides, the inhibition constant Ki at cyclophilin D was 41 nM. In assay [1], the “CRC [10 μM]” value is listed as 20 and the “CRC [10 μM] (ratio vs CsA)” value worked out at 0.80. Further, the “SYSY [10 μM] % recovery” value in the assay on SH-SY5Y cells is reported as 17%.
In turn, `CC(C)[C@@H]1OC(=O)C(C)(C)/C=C/c2ccc3ccc(nc3c2)N(C)NC(=O)[C@@H]2CCCN(N2)C(=O)[C@H](Cc2ccc(CN(C)C)cc2)NC1=O` [Compound (79)] had a Ki at cyclophilin A of 8.9 nM. Moreover, the inhibition constant Ki on cyclophilin D was determined as 28 nM. In assay [1], the “CRC [10 μM]” value was found to be 28.33 and the “CRC [10 μM] (ratio vs CsA)” value worked out at 0.85. For the same molecule, the “SYSY [10 μM] % recovery” value in the assay on SH-SY5Y cells was 1.8%.
In the case of `C[C@@H]1NC(=O)[C@H](Cc2cccc(N)c2)OC(=O)C(C)(C)/C=C/c2ccc3ccc(nc3c2)N(C)NC(=O)[C@@H]2CCCN(N2)C1=O` [Compound (50)], affinity at cyclophilin A was put at a Ki of 2.4 nM. Besides, the inhibitory constant (Ki) on cyclophilin D is 1.6 nM. For the same molecule, in assay [1], the “CRC [10 μM]” value is reported as 20 and the “CRC [10 μM] (ratio vs CsA)” value amounted to 1.00. For the same molecule, in the assay with SH-SY5Y cells, the “SYSY [10 μM] % recovery” value amounted to 25%.

The record behind these values is patent US20250243219A1, “MACROCYCLIC COMPOUNDS AND USES THEREOF” (Cypralis Limited, priority 2022, published 2025).
